Measurements as given in US7989422B2, “Antibacterial agents” (Alchemia Limited, priority 2005, dated 2011).

Columns and labels:
Format in all cases: cell-based
[1] = system: Enterococcus faecium ATCC 35667; assay: MIC against E. faecium, microbroth dilution; details: MIC class
Method: (§1) Testing was conducted to determine the in vitro antimicrobial activity of a series of compounds synthesised by Alchemia Pty Ltd. The antimicrobial activity of each compound was determined at a single concentration (128 μg/mL) in Mueller Hinton (MH) broth against the ATCC type strain of Staphylococcus aureus. […] Compounds showing activity at concentrations up to 32-64 μg/mL in the presence/absence of serum were then tested for MIC activity against a standard set of 5 microorganisms comprising of ATCC type strains of MRSA, Enterococcus faecalis, Enterococcus faecium, VRE and Escherichia coli. CLSI (formerly NCCLS) microbroth dilution technique was used.
(§2) Each compound is initially dissolved in 100 μL of DMSO. Each solution is then diluted further in 0.9 mL of sterile MH broth to give a total volume of 1 mL (1000 μg/mL) This stock solution is then further diluted in MH broth to give a test solution with final concentration of 128 μg/mL using the following formula: 0.5 ml stock in 3.4 ml MH broth
(§3) Each test organism was subcultured from the −70° C. deep freezer onto horse blood agar. The plates were streaked to obtain isolated colonies and incubated at 35° C. in non-CO2 incubator for 24 hours. A second subculture was carried out onto horse blood agar. For each test organism, 1-2 colonies were selected from an 18-24 hour culture and inoculated into 2 ml sterile MH broth. The turbidity was adjusted to 0.5 McFarland standard.
(§4) A 1:10 dilution in MH broth (200 μL in 2 ml MH) of the 0.5 McFarland control was prepared. 5 μL of this diluted solution was used to inoculate the trays.
(§5) The trays were prepared in a similar way as mentioned above and incubated at 35° C. in a non-CO2 incubator for 18-24 hours. The plates were examined for growth after the incubation time.
(§6) After 18-24 hour incubation 5 μL from each well was then inoculated onto horse blood agar and incubated for 18-24 hours at 35° C. in a non-CO2 incubator.
(§7) If the test organism is sensitive to the compound in the broth the growth will be inhibited. Similarly, if the organism grows on the antibiotic containing medium then it is resistant to this particular antibiotic.

[2] = system: Staphylococcus aureus ATCC 25923; assay: MIC against S. aureus, microbroth dilution in MH broth, without or with 5% horse serum; details: MIC class; S. aureus ATCC 25923
Method: as §1, §2, §3, §4
100 μL of sterile MH broth was added in columns 2-12. 200 μL of test solution was added in column 1. 100 μL was transferred in column 2 giving a ½ dilution. 100 μL from column 2 was then transferred to column 3 (¼ dilution). This dilution was carried on until column 12. A second tray containing the same test solution was inoculated in a similar manner using sterile MH broth with 5% heat inactivated horse serum. 5 μL of organism solution was then added to each well. The plates were then sealed and incubated at 35° C. in a non-CO2 incubator for 18-24 hours. The plates were examined for growth after the incubation time.
as §7

[3] = system: Enterococcus faecalis ATCC 29212; assay: MIC against E. faecalis, microbroth dilution; details: MIC class
Method: as §1, §2, §3, §4, §5, §6, §7

E. Faecium 51299 VanB = assay: MIC against vancomycin-resistant enterococcus 51299 (VanB), microbroth dilution; details: MIC class; ATCC 51299 VanB
Method: as §1, §2, §3, §4, §5, §6, §7

[4] = system: Staphylococcus aureus (MRSA) ATCC 33591; assay: MIC against MRSA, microbroth dilution; details: MIC class
Method: as §1, §2, §3, §4, §5, §6, §7

Compound	E. Faecium 35667 activity [1]	S. Aureus 25923 activity [2]	E. Fecalis 29212 activity [3]	E. Faecium 51299 VanB activity (E. Faecium 51299 VanB)	S. Aureus 33591 MRSA activity [4]
O=C(Nc1ccc(Cl)c(C(F)(F)F)c1)NC1COC(CO)C(n2c(NCc3ccc4ccccc4c3)nc3cc(C(F)(F)F)ccc32)C1O (stereo not drawn) [Compound 251]	++ (“++”: MIC (μg/mL): MIC ≦ 16)	++ (“++”: MIC (μg/mL): MIC ≦ 16)	++ (“++”: MIC (μg/mL): MIC ≦ 16)	++ (“++”: MIC (μg/mL): MIC ≦ 16)	++ (“++”: MIC (μg/mL): MIC ≦ 16)
O=C(Nc1ccc(Cl)c(C(F)(F)F)c1)NC1COC(CO)C(n2c(Nc3ccc(Cl)cc3)nc3cc(C(F)(F)F)cc(Cl)c32)C1O (stereo not drawn) [Compound 252]	− (“−”: MIC (μg/mL): MIC > 64)	+ (“+”: MIC (μg/mL): 64 ≧ MIC > 16)	+ (“+”: MIC (μg/mL): 64 ≧ MIC > 16)	− (“−”: MIC (μg/mL): MIC > 64)	− (“−”: MIC (μg/mL): MIC > 64)
CCCCCCCCCCCCC(N)C(=O)NC1C(CO)OCC(Nc2c(Cl)cc(C(F)(F)F)cc2[N+](=O)[O-])C1O (stereo not drawn) [Compound 198]	+ (“+”: MIC (μg/mL): 64 ≧ MIC > 16)	+ (“+”: MIC (μg/mL): 64 ≧ MIC > 16)	+ (“+”: MIC (μg/mL): 64 ≧ MIC > 16)	+ (“+”: MIC (μg/mL): 64 ≧ MIC > 16)	+ (“+”: MIC (μg/mL): 64 ≧ MIC > 16)
CCCCCCCCCCCCC(N)C(=O)NC1C(CO)OCC(n2c(N)nc3cc(C(F)(F)F)ccc32)C1O (stereo not drawn) [Compound 183]	++ (“++”: MIC (μg/mL): MIC ≦ 16)	+ (“+”: MIC (μg/mL): 64 ≧ MIC > 16)	− (“−”: MIC (μg/mL): MIC > 64)	− (“−”: MIC (μg/mL): MIC > 64)	− (“−”: MIC (μg/mL): MIC > 64)
CCCCCC(C)CCC(=O)NC1C(CO)OCC(n2c(S)nc3cc(C(F)(F)F)cc(Cl)c32)C1O (stereo not drawn) [Compound 178]	− (“−”: MIC (μg/mL): MIC > 64)	+ (“+”: MIC (μg/mL): 64 ≧ MIC > 16)	− (“−”: MIC (μg/mL): MIC > 64)	− (“−”: MIC (μg/mL): MIC > 64)	− (“−”: MIC (μg/mL): MIC > 64)
NC(Cc1ccc(-c2ccccc2)cc1)C(=O)Nc1nc2cc(C(F)(F)F)ccc2n1C1C(CO)OCC(NS(=O)(=O)c2ccc(C(F)(F)F)cc2)C1O (stereo not drawn) [Compound 241]	++ (“++”: MIC (μg/mL): MIC ≦ 16)	++ (“++”: MIC (μg/mL): MIC ≦ 16)	++ (“++”: MIC (μg/mL): MIC ≦ 16)	+ (“+”: MIC (μg/mL): 64 ≧ MIC > 16)	++ (“++”: MIC (μg/mL): MIC ≦ 16)
O=C(Nc1ccc(Cl)c(C(F)(F)F)c1)NC1COC(CO)C(n2c(NCc3ccccc3)nc3cc(C(F)(F)F)ccc32)C1O (stereo not drawn) [Compound 246]	+ (“+”: MIC (μg/mL): 64 ≧ MIC > 16)	++ (“++”: MIC (μg/mL): MIC ≦ 16)	++ (“++”: MIC (μg/mL): MIC ≦ 16)	+ (“+”: MIC (μg/mL): 64 ≧ MIC > 16)	++ (“++”: MIC (μg/mL): MIC ≦ 16)
Nc1ccccc1OC1C(NC(=O)Nc2ccc(Cl)c(C(F)(F)F)c2)COC(CO)C1NC(=O)C(N)Cc1ccc(-c2ccccc2)cc1 (single isomer, unassigned) [Compound 71]	++ (“++”: MIC (μg/mL): MIC ≦ 16)	++ (“++”: MIC (μg/mL): MIC ≦ 16)	+ (“+”: MIC (μg/mL): 64 ≧ MIC > 16)	+ (“+”: MIC (μg/mL): 64 ≧ MIC > 16)	++ (“++”: MIC (μg/mL): MIC ≦ 16)
O=C(NC1C(CO)OCC(n2cnc3cc(C(F)(F)F)cc(Cl)c32)C1O)c1ccc(-c2ccccc2)cc1 (stereo not drawn) [Compound 156]	+ (“+”: MIC (μg/mL): 64 ≧ MIC > 16)	+ (“+”: MIC (μg/mL): 64 ≧ MIC > 16)	− (“−”: MIC (μg/mL): MIC > 64)	− (“−”: MIC (μg/mL): MIC > 64)	− (“−”: MIC (μg/mL): MIC > 64)
O=C(Nc1ccc(Cl)c(C(F)(F)F)c1)NC1COC(CO)C(n2c(Nc3ccc(C(F)(F)F)cc3)nc3cc(C(F)(F)F)cc(Cl)c32)C1O (stereo not drawn) [Compound 253]	− (“−”: MIC (μg/mL): MIC > 64)	− (“−”: MIC (μg/mL): MIC > 64)	+ (“+”: MIC (μg/mL): 64 ≧ MIC > 16)	− (“−”: MIC (μg/mL): MIC > 64)	− (“−”: MIC (μg/mL): MIC > 64)
CCCCCCCCCCCCC(N)C(=O)NC1C(CO)OCC(Nc2ccc(C(F)(F)F)cc2[N+](=O)[O-])C1O (stereo not drawn) [Compound 197]	+ (“+”: MIC (μg/mL): 64 ≧ MIC > 16)	++ (“++”: MIC (μg/mL): MIC ≦ 16)	+ (“+”: MIC (μg/mL): 64 ≧ MIC > 16)	+ (“+”: MIC (μg/mL): 64 ≧ MIC > 16)	+ (“+”: MIC (μg/mL): 64 ≧ MIC > 16)
O=C(Nc1ccc(Cl)c(C(F)(F)F)c1)NC1COC(CO)C(n2c(NCc3ccccc3)nc3cc(C(F)(F)F)cc(Cl)c32)C1O (stereo not drawn) [Compound 255]	− (“−”: MIC (μg/mL): MIC > 64)	++ (“++”: MIC (μg/mL): MIC ≦ 16)	++ (“++”: MIC (μg/mL): MIC ≦ 16)	+ (“+”: MIC (μg/mL): 64 ≧ MIC > 16)	++ (“++”: MIC (μg/mL): MIC ≦ 16)
CCCCCCCCCCCCC(N)C(=O)NC1C(CO)OCC(n2c(O)nc3cc(C(F)(F)F)cc(Cl)c32)C1O (stereo not drawn) [Compound 185]	++ (“++”: MIC (μg/mL): MIC ≦ 16)	+ (“+”: MIC (μg/mL): 64 ≧ MIC > 16)	++ (“++”: MIC (μg/mL): MIC ≦ 16)	+ (“+”: MIC (μg/mL): 64 ≧ MIC > 16)	++ (“++”: MIC (μg/mL): MIC ≦ 16)
CCCCCCCCCCCCC(N)C(=O)NC1C(CO)OCC(n2c(N)nc3cc(C(F)(F)F)cc(Cl)c32)C1O (stereo not drawn) [Compound 187]	+ (“+”: MIC (μg/mL): 64 ≧ MIC > 16)	++ (“++”: MIC (μg/mL): MIC ≦ 16)	++ (“++”: MIC (μg/mL): MIC ≦ 16)	++ (“++”: MIC (μg/mL): MIC ≦ 16)	++ (“++”: MIC (μg/mL): MIC ≦ 16)
O=C(Nc1ccc(Cl)c(C(F)(F)F)c1)NC1COC(CO)C(n2c(Nc3ccc(-c4ccccc4)cc3)nc3cc(C(F)(F)F)cc(Cl)c32)C1O (stereo not drawn) [Compound 254]	− (“−”: MIC (μg/mL): MIC > 64)	++ (“++”: MIC (μg/mL): MIC ≦ 16)	− (“−”: MIC (μg/mL): MIC > 64)	− (“−”: MIC (μg/mL): MIC > 64)	++ (“++”: MIC (μg/mL): MIC ≦ 16)
Nc1cc(C(F)(F)F)cc(Cl)c1NC1COC(CO)C(NC(=O)c2ccc(-c3ccccc3)cc2)C1O (stereo not drawn) [Compound 200]	− (“−”: MIC (μg/mL): MIC > 64)	− (“−”: MIC (μg/mL): MIC > 64)	− (“−”: MIC (μg/mL): MIC > 64)	− (“−”: MIC (μg/mL): MIC > 64)	+ (“+”: MIC (μg/mL): 64 ≧ MIC > 16)
NC(Cc1ccc(-c2ccccc2)cc1)C(=O)Nc1nc2cc(C(F)(F)F)ccc2n1C1C(CO)OCC(NC(=O)Nc2ccc(Cl)c(C(F)(F)F)c2)C1O (stereo not drawn) [Compound 237]	− (“−”: MIC (μg/mL): MIC > 64)	− (“−”: MIC (μg/mL): MIC > 64)	++ (“++”: MIC (μg/mL): MIC ≦ 16)	− (“−”: MIC (μg/mL): MIC > 64)	++ (“++”: MIC (μg/mL): MIC ≦ 16)
CCCCCCCCCCCCC(N)C(=O)NC1C(CO)OCC(n2c(S)nc3cc(C(F)(F)F)ccc32)C1O (stereo not drawn) [Compound 182]	++ (“++”: MIC (μg/mL): MIC ≦ 16)	++ (“++”: MIC (μg/mL): MIC ≦ 16)	++ (“++”: MIC (μg/mL): MIC ≦ 16)	++ (“++”: MIC (μg/mL): MIC ≦ 16)	++ (“++”: MIC (μg/mL): MIC ≦ 16)
